In ChEMBL document CHEMBL2413072, “Synthesis and in vitro anticancer studies of novel C-2 arylidene congeners of lantadenes” (2013):

Legend:
Type in all cases: functional
SF-268 = test: Growth inhibition of human SF268 cells assessed as cell growth at 10^-4 M by sulforhodamine B assay; conditions: read-out: Activity
RPMI-8226 = test: Growth inhibition of human RPMI8226 cells assessed as cell growth at 10^-8 M by sulforhodamine B assay; conditions: read-out: Activity
A498 = test: Growth inhibition of human A498 cells assessed as cell growth at 10^-8 M by sulforhodamine B assay; conditions: read-out: Activity
UACC-257 = test: Growth inhibition of human UACC257 cells assessed as cell growth at 10^-7 M by sulforhodamine B assay; conditions: read-out: Activity
CCRF-CEM = test: Growth inhibition of human CCRF-CEM cells by sulforhodamine B assay
SR = test: Growth inhibition of human SR cells assessed as cell growth at 10^-6 M by sulforhodamine B assay; conditions: read-out: Activity
NCI-H522 = test: Growth inhibition of human NCI-H522 cells assessed as cell growth at 10^-4 M by sulforhodamine B assay; conditions: read-out: Activity
HOP-62 = test: Growth inhibition of human HOP62 cells assessed as cell growth at 10^-6 M by sulforhodamine B assay; conditions: read-out: Activity
NCI-H23 = test: Growth inhibition of human NCI-H23 cells by sulforhodamine B assay
NCI-H226 = test: Growth inhibition of human NCI-H226 cells assessed as cell growth at 10^-6 M by sulforhodamine B assay; conditions: read-out: Activity
ACHN [1] = test: Growth inhibition of human ACHN cells assessed as cell growth at 10^-7 M by sulforhodamine B assay; conditions: read-out: Activity
786-0 = test: Growth inhibition of human 786-0 cells assessed as cell growth at 10^-6 M by sulforhodamine B assay; conditions: read-out: Activity
UACC-62 = test: Growth inhibition of human UACC62 cells by sulforhodamine B assay
HL-60(TB) = test: Growth inhibition of human HL-60(TB) cells by sulforhodamine B assay
MOLT-4 = test: Growth inhibition of human MOLT4 cells assessed as cell growth at 10^-6 M by sulforhodamine B assay; conditions: read-out: Activity
KM12 = test: Growth inhibition of human KM12 cells assessed as cell growth at 10^-6 M by sulforhodamine B assay; conditions: read-out: Activity
[2] = Growth inhibition of human NCI-ADR-RES cells assessed as cell growth at 10^-8 M by sulforhodamine B assay; conditions: read-out: Activity
SN12C = test: Growth inhibition of human SN12C cells assessed as cell growth at 10^-4 M by sulforhodamine B assay; conditions: read-out: Activity
SK-MEL-28 = test: Growth inhibition of human SK-MEL-28 cells assessed as cell growth at 10^-7 M by sulforhodamine B assay; conditions: read-out: Activity
SK-MEL-5 = test: Growth inhibition of human SK-MEL-5 cells assessed as cell growth at 10^-8 M by sulforhodamine B assay; conditions: read-out: Activity
OVCAR-3 = test: Growth inhibition of human OVCAR3 cells by sulforhodamine B assay
PC-3 = test: Growth inhibition of human PC3 cells assessed as cell growth at 10^-4 M by sulforhodamine B assay; conditions: read-out: Activity
BT-549 = test: Growth inhibition of human BT549 cells assessed as cell growth at 10^-6 M by sulforhodamine B assay; conditions: read-out: Activity
[3] = Growth inhibition of human Hs 578T cells by sulforhodamine B assay
ACHN [4] = test: Growth inhibition of human ACHN cells assessed as cell growth at 10^-8 M by sulforhodamine B assay; conditions: read-out: Activity
Malme-3M = test: Growth inhibition of human MALME-3M cells assessed as cell growth at 10^-4 M by sulforhodamine B assay; conditions: read-out: Activity
HOP-92 = test: Growth inhibition of human HOP92 cells assessed as cell growth at 10^-8 M by sulforhodamine B assay; conditions: read-out: Activity
SK-MEL-2 = test: Growth inhibition of human SK-MEL-2 cells assessed as cell growth at 10^-4 M by sulforhodamine B assay; conditions: read-out: Activity
[5] = Growth inhibition of human NCI-ADR-RES cells by sulforhodamine B assay
IGROV-1 = test: Growth inhibition of human IGROV1 cells by sulforhodamine B assay
LOX IMVI = test: Growth inhibition of human LOXIMVI cells assessed as cell growth at 10^-8 M by sulforhodamine B assay; conditions: read-out: Activity
[6] = read-out: LC50 (the source's name)
[7] = read-out: pLC50 (the source's name) (converted)

## CC(C)=CC(=O)O[C@@H]1CC(C)(C)C[C@H]2C3=CC[C@@H]4[C@@]5(C)CC[C@H](O)C(C)(C)[C@@H]5CC[C@@]4(C)[C@]3(C)CC[C@@]12C(=O)O [Reduced Lantadene B]
SF-268
  growth at 100 µM: -51%
RPMI-8226
  growth at 0.01 µM: 100%
A498
  growth at 0.01 µM: 84%
UACC-257
  growth at 0.1 µM: 93%
CCRF-CEM; read-out: GI50
  GI50: 2.83 µM
CCRF-CEM; [6]
  CC50: > 100 µM
CCRF-CEM; read-out: TGI
  TGI: 34.8 µM
CCRF-CEM; read-out: pGI50 (converted)
  GI50: 2.82 µM
CCRF-CEM; [7]
  CC50: > 100 µM
CCRF-CEM; read-out: pTGI (converted)
  TGI: 34.7 µM
SR
  growth at 1 µM: 92%
NCI-H522
  growth at 100 µM: -64%
HOP-62
  growth at 1 µM: 88%
NCI-H23; read-out: GI50
  GI50: 7.24 µM
NCI-H23; [6]
  CC50: 84 µM
NCI-H23; read-out: TGI
  TGI: 26.9 µM
NCI-H23; read-out: pGI50 (converted)
  GI50: 7.24 µM
NCI-H23; [7]
  CC50: 83.2 µM
NCI-H23; read-out: pTGI (converted)
  TGI: 26.9 µM
NCI-H226
  growth at 1 µM: 86%
ACHN [1]
  growth at 0.1 µM: 93%
786-0
  growth at 1 µM: 93%
UACC-62; read-out: GI50
  GI50: 1.95 µM
UACC-62; [6]
  CC50: 25.2 µM
UACC-62; read-out: TGI
  TGI: 5.48 µM
UACC-62; read-out: pGI50 (converted)
  GI50: 1.95 µM
UACC-62; [7]
  CC50: 25.1 µM
UACC-62; read-out: pTGI (converted)
  TGI: 5.5 µM
HL-60(TB); read-out: GI50
  GI50: 2.52 µM
HL-60(TB); [6]
  CC50: 86.3 µM
HL-60(TB); read-out: TGI
  TGI: 6.86 µM
HL-60(TB); read-out: pGI50 (converted)
  GI50: 2.51 µM
HL-60(TB); [7]
  CC50: 87.1 µM
HL-60(TB); read-out: pTGI (converted)
  TGI: 6.92 µM
MOLT-4
  growth at 1 µM: 78%
KM12
  growth at 1 µM: 48%
[2]
  growth at 0.01 µM: 107%
SN12C
  growth at 100 µM: -91%
SK-MEL-28
  growth at 0.1 µM: 100%
SK-MEL-5
  growth at 0.01 µM: 93%
OVCAR-3; read-out: GI50
  GI50: 7.04 µM
OVCAR-3; [6]
  CC50: 54.7 µM
OVCAR-3; read-out: TGI
  TGI: 22.1 µM
OVCAR-3; read-out: pGI50 (converted)
  GI50: 7.08 µM
OVCAR-3; [7]
  CC50: 55 µM
OVCAR-3; read-out: pTGI (converted)
  TGI: 21.9 µM
PC-3
  growth at 100 µM: -71%
BT-549
  growth at 1 µM: 93%
[3]; read-out: GI50
  GI50: 3.04 µM
[3]; [6]
  CC50: > 100 µM
[3]; read-out: TGI
  TGI: 12.3 µM
[3]; read-out: pGI50 (converted)
  GI50: 3.02 µM
[3]; [7]
  CC50: > 100 µM
[3]; read-out: pTGI (converted)
  TGI: 12.3 µM
ACHN [4]
  growth at 0.01 µM: 103%
Malme-3M
  growth at 100 µM: -46%
HOP-92
  growth at 0.01 µM: 91%
SK-MEL-2
  growth at 100 µM: -71%
[5]; read-out: GI50
  GI50: 5.83 µM
[5]; [6]
  CC50: > 100 µM
[5]; read-out: TGI
  TGI: 35.9 µM
[5]; read-out: pGI50 (converted)
  GI50: 5.89 µM
[5]; [7]
  CC50: > 100 µM
[5]; read-out: pTGI (converted)
  TGI: 36.3 µM
IGROV-1; read-out: GI50
  GI50: 6.35 µM
IGROV-1; [6]
  CC50: > 100 µM
IGROV-1; read-out: TGI
  TGI: 29.4 µM
IGROV-1; read-out: pGI50 (converted)
  GI50: 6.31 µM
IGROV-1; [7]
  CC50: > 100 µM
IGROV-1; read-out: pTGI (converted)
  TGI: 29.5 µM
LOX IMVI
  growth at 0.01 µM: 98%
